Measurements from patent US6392118B1, “Mx-1 conditionally immortalized cells” (Neurotech S.A., priority 1994, dated 2002).

Assays:
[1] = system: glial fibrillary acidic protein (GFAP); assay: GFAP reactivity of neural stem cells encapsulated in BAOs with or without EGF; format: cell-based; conditions: 20 ng/ml EGF
Experimental: Neurospheres were prepared using the methods of Weiss et al., PCT/CA 92/00283. Passage 68 neurospheres were collected and divided. Half of the neurospheres were triturated into a single cell suspension and half remained as clusters. A single cell count was performed on a single cell suspension and it was assumed that the clustered cells were of the same concentration. Single cells and clusters were suspended separately in equal amounts of Vitrogen™ and either neurosphere medium with 20 ng/ml EGF as controls, or PC-1 medium.
Cells were loaded at a density of 25,000 cells/μl into single-skinned hollow fiber PAN/PVC BAOs, prepared substantially as described in Example 2, and then hub sealed. The BAOs were held in either neurosphere+EGF medium or in PC-1 medium (with no EGF).
The BAOs were sacrificed after 3 days and 7 days and were stained for glial fibrillary acidic protein (GFAP) by immunocytochemistry. GFAP is an intermediate filament protein specifically expressed in astrocytes. […]

[2] = system: PC12 cells

Row | Substance | GFAP Reactivity ([1]; cell clusters, 3 days) | GFAP Reactivity ([1]; cell clusters, 7 days) | GFAP Reactivity ([1]; single cell, 3 days) | GFAP Reactivity ([1]; single cell, 7 days) | toxicity of scaffold to PC12 cells [2]
1 | EGF: epidermal growth factor, 20 ng/ml in neurosphere medium | Negative | Negative | Negative | Negative | 
2 | poly(hydroxyethyl methacrylate) [PHEMA] |  |  |  |  | nontoxic
